The values that follow are results of earlier work, collected in patent US20110245183A1, “Topical Uses of Szeto-Schiller Peptides” (priority 2010, published 2011).

Where no end group is shown, it is not given here. [ ]: non-standard residue; d: D form. Dmt = Cc1cc(O)cc(C)c1C[C@H](N)C(=O)O

The subject of data set [1] is Parkinson's Disease (PD) or Amyotrophic Lateral Sclerosis (ALS). Conditions: mice studies.
Data set [2] concerns LDL.
Data set [3] relates to isolated mitochondria. Conditions: MPP+ (1-methyl-4-phenylpyridium).

Take “D-Arg-2′,6′-Dmt-Lys-Phe-NH2 ([dR][Dmt]KF-NH2) [SS-31]”: the “effectiveness in the treatment of Parkinson's Disease (PD) or Amyotrophic Lateral Sclerosis (ALS)” value in data set [1] is on record as “may be effective”. For the same substance, in data set [2], the “inhibiting LDL oxidation” value was “as effective as SS-02”. In data set [3], the “MPP+-induced inhibition of ATP production” value is “prevented”, the “MPP+-induced inhibition of oxygen consumption” value was “prevented” and the “MPP+-induced mitochondrial swelling” value is “prevented”.

On to “Phe-D-Arg-Phe-Lys-NH2 (F[dR]FK-NH2; N-terminus assumed; SMILES N=C(N)NCCC[C@@H](NC(=O)[C@@H](N)Cc1ccccc1)C(=O)N[C@@H](Cc1ccccc1)C(=O)N[C@@H](CCCCN)C(N)=O) [SS-20]”, for which, in data set [1], the “effectiveness in the treatment of Parkinson's Disease (PD) or Amyotrophic Lateral Sclerosis (ALS)” value was “may be effective”. In data set [3], the “MPP+-induced inhibition of ATP production” value is “prevented”, the “MPP+-induced inhibition of oxygen consumption” value is “prevented” and the “MPP+-induced mitochondrial swelling” value is on record as “prevented”.
